This is an account of results in patent US10787450B2 (BRISTOL-MYERS SQUIBB COMPANY, priority 2016, dated 2020).

Like-named read-outs stand apart in the source and are kept apart here.

Assay [1] deals with IL-1 beta-induced coronary stenosis. The conditions noted are these: long term treatment; cited from earlier work.
The test system of the next assay is rat stroke model. The conditions noted are these: in vivo; cited from earlier work.
The target in a further assay is ROCK2 (Homo sapiens (Human), UniProt O75116). As to the kind of experiment: ROCK2 kinase inhibition assay (FITC peptide substrate, LABCHIP 3000 Reader). The assay is classed as biochemical. The conditions noted are these: 5 μM ATP, 1.5 μM peptide substrate. In outline: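 Reaction in 20 mM HEPES pH 7.5, 20 mM MgCl2, 0.015% Brij-35, 4 mM DTT with 5 μM ATP and 1.5 μM FITC-AHA-AKRRRLSSLRA-OH peptide, started with Rho kinase, DMSO <2%. EDTA-stopped; phospho and non-phospho peptide separated by mobility shift. IC50 from dose-response curve fit.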

For the next assay, the system named is neointimal formation. The conditions noted are these: rats; cited from earlier work.
For assay [2], the system named is spontaneously hypertensive rat, renal hypertensive rat and deoxycortisone acetate salt hypertensive rat models. Conditions: cited from earlier work.
Assay [3] concerns congestive heart failure in Dahl salt-sensitive rats. The conditions noted are these: rat, in vivo; cited from earlier work.

ROCK2, sequence (O75116 whole entry, species assumed): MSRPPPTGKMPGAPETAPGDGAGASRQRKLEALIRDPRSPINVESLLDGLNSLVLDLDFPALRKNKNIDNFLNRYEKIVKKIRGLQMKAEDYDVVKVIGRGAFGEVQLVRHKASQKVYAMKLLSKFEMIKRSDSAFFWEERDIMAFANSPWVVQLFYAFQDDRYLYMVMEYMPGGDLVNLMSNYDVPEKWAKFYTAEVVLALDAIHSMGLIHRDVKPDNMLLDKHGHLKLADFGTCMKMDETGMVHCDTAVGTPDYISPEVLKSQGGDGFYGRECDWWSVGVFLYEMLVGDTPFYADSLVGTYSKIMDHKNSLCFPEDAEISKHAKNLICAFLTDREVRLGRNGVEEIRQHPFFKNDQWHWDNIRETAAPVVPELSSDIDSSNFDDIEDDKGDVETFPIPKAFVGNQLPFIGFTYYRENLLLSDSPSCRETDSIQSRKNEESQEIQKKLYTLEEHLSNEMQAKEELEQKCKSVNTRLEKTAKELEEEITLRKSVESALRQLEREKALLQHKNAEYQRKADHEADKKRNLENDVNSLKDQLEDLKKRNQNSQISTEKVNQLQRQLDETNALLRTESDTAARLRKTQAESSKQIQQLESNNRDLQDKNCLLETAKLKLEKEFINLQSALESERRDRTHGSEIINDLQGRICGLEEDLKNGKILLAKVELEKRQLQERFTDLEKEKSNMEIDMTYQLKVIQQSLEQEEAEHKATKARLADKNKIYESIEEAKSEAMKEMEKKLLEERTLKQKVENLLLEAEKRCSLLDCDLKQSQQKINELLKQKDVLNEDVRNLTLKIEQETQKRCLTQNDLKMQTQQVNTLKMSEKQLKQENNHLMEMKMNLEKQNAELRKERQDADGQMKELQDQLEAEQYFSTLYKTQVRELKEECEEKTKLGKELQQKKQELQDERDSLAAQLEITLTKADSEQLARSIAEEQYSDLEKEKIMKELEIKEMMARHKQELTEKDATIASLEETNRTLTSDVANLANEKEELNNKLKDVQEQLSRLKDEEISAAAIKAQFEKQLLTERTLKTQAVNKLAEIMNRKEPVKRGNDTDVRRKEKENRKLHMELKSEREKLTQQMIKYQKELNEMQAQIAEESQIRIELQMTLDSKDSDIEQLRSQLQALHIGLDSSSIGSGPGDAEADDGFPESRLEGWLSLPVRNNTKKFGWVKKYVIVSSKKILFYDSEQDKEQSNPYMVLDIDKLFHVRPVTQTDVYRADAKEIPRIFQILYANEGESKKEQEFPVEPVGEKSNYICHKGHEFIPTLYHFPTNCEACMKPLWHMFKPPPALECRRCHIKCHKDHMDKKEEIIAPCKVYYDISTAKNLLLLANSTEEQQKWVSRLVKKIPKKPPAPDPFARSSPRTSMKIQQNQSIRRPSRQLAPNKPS

In the case of `O=S(=O)(c1cccc2cnccc12)N1CCCNCC1` [fasudil], in assay [1], the coronary constrictive remodeling entry was “promote a regression of coronary constrictive remodeling” and the coronary stenosis result was “progressively reduce coronary stenosis”. The “infarct size and neurologic deficit” value with rat stroke model was “reduce both the infarct size and neurologic deficit”.

The molecule `COc1nc(N2CC3(CCN(C4COC4)CC3)N(Cc3cccc(F)c3C)C2=O)ccc1-c1cn[nH]c1` [Example 239, 1-(3-fluoro-2-methyl-benzyl)-3-(6-methoxy-5-(1H-pyrazol-4-yl)pyridin-2-yl)-8-(oxetan-3-yl)-1,3,8-triazaspiro [4.5]decan-2-one] came in with an IC50 at ROCK2 of less than 3 nM.

With `COc1cccc(NC2C(=O)N(c3ccc(-c4cn[nH]c4)cn3)CC23CCN(C(=O)CC(C)c2ccccc2)CC3)c1` (centres unmarked) [Example 254, 2-(5-(1H-pyrazol-4-yl)pyridin-2-yl)-4-((3-methoxy-phenyl)amino)-8-(3-phenyl-butanoyl)-2,8-diazaspiro [4.5]decan-3-one], the IC50 against ROCK2 lay in the range of 250 to 3000 nM.

On ROCK2, `COc1cccc(CN2C(=O)N(c3ccc(-c4cn[nH]c4)cc3)CC23CCN(CC(=O)N(C)C)CC3)c1` [Example 170, 2-(3-(4-(1H-pyrazol-4-yl)phenyl)-1-(3-methoxybenzyl)-2-oxo-1,3,8-triazaspiro[4.5]decan-8-yl)-N,N-dimethylacetamide] had an IC50 of less than 3 nM.

For `COc1cccc(CN2C(=O)N(c3ccc(-c4cn[nH]c4)cn3)CC23CCN(CC(C)O)CC3)c1` (centres unmarked) [Example 160, 3-(5-(1H-pyrazol-4-yl)pyridin-2-yl)-8-(2-hydroxypropyl)-1-(3-methoxybenzyl)-1,3,8-triazaspiro[4.5]decan-2-one], the IC50 on ROCK2 was in the range of 3 to 30 nM.

Consider `CCc1nc(N2CC3(CCN(CC(C)O)CC3)N(Cc3cc(F)cc(OC)c3)C2=O)ccc1-c1cn[nH]c1` (centres unmarked) [Example 154, 3-(6-ethyl-5-(1H-pyrazol-4-yl)pyridin-2-yl)-1-(3-fluoro-5-methoxybenzyl)-8-(2-hydroxypropyl)-1,3,8-triazaspiro[4.5]decan-2-one], for which the IC50 at ROCK2 is less than 3 nM.

As for `CC(=O)N1CCC2(CC1)CN(c1ccc(-c3cn[nH]c3)cc1)C(=O)N2Cc1cc(F)ccc1C` [Example 83, 3-(4-(1H-pyrazol-4-yl)phenyl)-8-acetyl-1-(5-fluoro-2-methylbenzyl)-1,3,8-triazaspiro[4.5]decan-2-one], the IC50 at ROCK2 lay in the range of 3 to 30 nM.

On to `COc1nc(N2CC3(CCN(CC(C)O)CC3)N(Cc3cccc(F)c3C)C2=O)ccc1-c1cn[nH]c1` (centres unmarked) [Example 166, 1-(3-fluoro-2-methylbenzyl)-8-(2-hydroxypropyl)-3-(6-methoxy-5-(1H-pyrazol-4-yl)pyridin-2-yl)-1,3,8-triazaspiro[4.5]decan-2-one], for which the IC50 against ROCK2 is less than 3 nM.

`COc1cccc(NC2C(=O)N(c3ccc(-c4cn[nH]c4)cn3)CC23CCN(C(=O)CCc2nnc(-c4ccccc4)o2)CC3)c1` (centres unmarked) [Example 258, 2-(5-(1H-pyrazol-4-yl)pyridin-2-yl)-4-((3-methoxy-phenyl)amino)-8-(3-(5-phenyl-1,3,4-oxadiazol-2-yl)pro-panoyl)-2,8-diazaspiro [4.5]decan-3-one] returned an IC50 at ROCK2 of 30 to 250 nM.

On ROCK2, `COc1cccc(CN2C(=O)N(c3ccc(-c4cn[nH]c4)cc3)CC23CCN(C(=O)OC(C)C)CC3)c1` [Example 99, isopropyl 3-(4-(1H-pyrazol-4-yl)phenyl)-1-(3-methoxybenzyl)-2-oxo-1,3,8-triazaspiro[4.5]decane-8-carboxylate] came in with an IC50 of less than 3 nM.

On ROCK2, `CCc1nc(N2CC3(CCN(C(=O)OC)CC3)N(Cc3cccc(OC)c3)C2=O)ccc1-c1cn[nH]c1` [Example 105, methyl 3-(6-ethyl-5-(1H-pyrazol-4-yl)pyridin-2-yl)-1-(3-methoxybenzyl)-2-oxo-1,3,8-triazaspiro[4.5]decane-8-carboxylate] had an IC50 of less than 3 nM.

`Cc1c(F)cccc1CN1C(=O)N(c2ccc(-c3cn[nH]c3)cc2)CC12CCN(C(=O)C1(C)COC1)CC2` [Example 189, 3-(4-(1H-pyrazol-4-yl)phenyl)-1-(3-fluoro-2-methylbenzyl)-8-(3-methyloxetane-3-carbonyl)-1,3,8-triazaspiro[4.5]decan-2-one]: the IC50 against ROCK2 was in the range of 3 to 30 nM.

Take `COc1cccc(CN2C(=O)N(c3ccc(-c4cn[nH]c4)cc3)CC23CCN(CC2CCOCC2)CC3)c1` [Example 233, 3-(4-(1H-pyrazol-4-yl)phenyl)-1-(3-methoxy-benzyl)-8-((tetrahydro-2H-pyran-4-yl)methyl)-1,3,8-triazaspiro [4.5]decan-2-one]: at ROCK2, the IC50 is less than 3 nM.

`CCN1CCC2(CC1)CN(c1ccc(-c3cn[nH]c3)cc1)C(=O)N2Cc1cccc(OC)c1` [Example 122, 3-(4-(1H-pyrazol-4-yl)phenyl)-8-ethyl-1-(3-methoxybenzyl)-1,3,8-triazaspiro[4.5]decan-2-one] had an IC50 against ROCK2 of less than 3 nM.

At ROCK2, `O=C1N(c2ccc(-c3cn[nH]c3)cc2)CC2(CCNCC2)N1CC1CCCCC1` [Example 67] had an IC50 of 3 to 30 nM.

On to `COc1cccc(CN2C(=O)N(c3ccc(-c4cn[nH]c4)cc3)CC23CCN(C(=O)N(C)C)CC3)c1` [Example 93, 3-(4-(1H-pyrazol-4-yl)phenyl)-1-(3-methoxybenzyl)-N,N-dimethyl-2-oxo-1,3,8-triazaspiro[4.5]decane-8-carboxamide], for which, on ROCK2, the IC50 was less than 3 nM.

In turn, `COc1cccc(CN2C(=O)N(c3ccc(-c4cn[nH]c4)cc3)CC23CCN(C(=O)C(C)O)CC3)c1` (centres unmarked) [Example 191, 3-(4-(1H-pyrazol-4-yl)phenyl)-8-(2-hydroxypropanoyl)-1-(3-methoxybenzyl)-1,3,8-triazaspiro[4.5]decan-2-one] displayed an IC50 against ROCK2 of less than 3 nM.

Regarding `C[C@@H](N)[C@H]1CC[C@H](C(=O)Nc2ccncc2)CC1` [Example Y-27632, Y-27632], the neointimal formation entry in the assay with neointimal formation is recorded as “inhibited neointimal formation”. Also, the “effect on blood pressure” value in assay [2] (control rats) is “only a minor effect on blood pressure”; in assay [2] (three rat models of hypertension), “significantly decrease blood pressure”. The “ventricular hypertrophy, fibrosis and function” value in assay [3] was “improve ventricular hypertrophy, fibrosis and function”.

Broadly, the IC50 is the concentration needed to halve the response being measured.
